From patent US3959300A, “Novel indolobenzazepine derivatives, useful as tranquilizers” (priority 1974, dated 1976)

Assays:
Type in all cases: in vivo
[1] = system: approach-avoidance ("conflict") situation; assay: Rat Conflict (Approach-Avoidance) Test; settings: for Conflict (rat) MED / minimal effective dose: po, reexposed after 1 or 2 hours, rat; for minimal effective dose: read-out: Conflict (rat) MED
Description: Results given in: mg/kg po/rat
Rat Conflict (Approach-Avoidance) Test: Food deprived rats are trained to pass from one compartment to an adjacent one to obtain food. The training consists of three exposures to the test situation on day one of the experiment. The rats are given limited (1-2 hr) free access to food in their home cages on day one and are then food deprived for at least 18 hours. On day two of the experiment, the rats are given a control exposure to the test situation followed by a second exposure after 1/2 to 1 hour in which they are shocked after crossing and eating. Groups of 6-8 rats are then dosed orally with solvent or test compound and then reexposed to the test situation after 1 or 2 hours.
This effect is dose-related (and the MED is the minimum dose at which this effect is obtained); rats dosed with solvent only consistently show a high level of fear as evidenced by decreased mobility and absence of feeding when placed in the test situation after receiving a shock.

locomotor activity = assay: Mouse Screen (decrease in locomotor activity); settings: po, mouse, lowest dose producing obvious decrease in locomotor activity; for minimal effective dose: read-out: Screen (mouse) MED
Text: (§1) Results given in: mg/kg po/mouse
Mouse Screen: The minimal effective dose (MED) is the lowest oral dose producing an obvious decrease in locomotor activity, using observational techniques. Groups of 3 mice are given decreasing oral doses at 0.5 log intervals (300, 100, 30 . . . etc.) until no behavioral effects are evident. Decrease of locomotor activity is indicative of general central nervous system depressant activity.

taming = assay: Rhesus Monkey Taming Effects; settings: po, rhesus monkey; for minimal effective dose: Macaca mulatta, read-out: Taming (monkey) MED
Description: Results given in: mg/kg po/monkey
Rhesus Monkey Taming Effects: Compounds are administered orally to groups of six rhesus monkeys. The behavior of the animals is then evaluated by observational means. Taming effects are determined by the ability of the observer to approach and touch the monkey. Compounds with major tranquilizer activity in man can produce a state of passive tameness in the rhesus monkey wherein it can be touched without provoking any of the threatening or aggressive behavior seen in the normal animal. The MED is the minimal oral dose at which some taming effect can be observed.

[2] = system: Conditioned Avoidance Response; assay: Rat Conditioned Avoidance Response (C.A.R.); settings: po, rat, tested 1, 2, and 4 hours after administration; for ED50: read-out: C.A.R. (rat) ED50
Description: (§2) Results given in: mg/kg po/mouse mg/kg po/rat
(§3) Mouse and Rat Conditioned Avoidance Response: Mice and rats are trained to jump out of a pit onto a ledge to avoid shock when presented with a light and sound conditioned stimulus. The animals are tested 1, 2, and 4 hours after administration of the test compound. Three to 4 dose levels and groups of 4-8 animals/dose are used. The ED50 is the dose producing a block of the C.A.R. in 50% of the animals. Blocking of the C.A.R. at non-toxic doses appears to correlate with major tranquilizer activity in man.

[3] = system: amphetamine hyperactivity; assay: Mouse Anti-Amphetamine Activity (A.A.); settings: po, mouse, d-amphetamine sulfate 5 mg/kg sc 1 hour after compound, 60 minutes recording; for ED50: read-out: A.A. (mouse) ED50
Description: as §1
Mouse Anti-Amphetamine Activity: Groups of 5 mice are given d-amphetamine sulfate 5 mg/kg sc 1 hour after oral administration of graded doses of test compound. The mice are placed in photocell activity units immediately after amphetamine administration and locomotor activity is recorded for 60 minutes. The ED50 is calculated as the dose causing a 50% reduction in locomotor activity relative to the activity of the amphetamine-treated control mice. Amphetamine antagonism at non-toxic doses appears to correlate with major tranquilizer activity in man.

[4] = system: Conditioned Avoidance Response; assay: Mouse Conditioned Avoidance Response (C.A.R.); settings: po, mouse, tested 1, 2, and 4 hours after administration; for ED50: read-out: C.A.R. (mouse) ED50
Description: as §2, §3

[5] = system: Conditioned Avoidance Response; assay: Dog Conditioned Avoidance Response (C.A.R.); settings: po, dog, 1, 2, and 4 hours after administration; for ED50: Canis lupus familiaris, read-out: C.A.R. (dog) ED50
Description: Results given in: mg/kg po/dog
Dog Conditioned Avoidance Response: Dogs are trained to raise a forelimb when presented with a conditioned stimulus (light) in order to avoid an electric shock. Blocks of 10 trials are given to groups of four dogs during a pretreatment period and at 1, 2, and 4 hours after oral administration of test compound. The ED50 values are calculated as the dose causing 50% of the animals to show five or more incorrect responses. Blocking of the C.A.R. at non-toxic doses appears to correlate with major tranquilizer activity in man.

## 3-isobutyl-1,2,3,4,8,9-hexahydropyrido-[4', 3':2,3]indolo[1,7-ab ][1]benzazepine hydrochloride [No. 1, reference compound]
[1]
  Conflict (rat) MED: > 40 mg/kg
Locomotor activity
  Screen (mouse) MED: 100 to 300 mg/kg
taming
  Taming (monkey) MED: > 20 mg/kg
[2]
  C.A.R. (rat) ED50: > 40 mg/kg
[3]
  A.A. (mouse) ED50: > 100 mg/kg

## 1,2,3,4,8,9-hexahydro-3-[(4-methylbicyclo[2.2.2]oct-1-yl)methyl]pyrido[4',3':2,3]indolo[1,7-ab][1]benzazepine hydrochloride [Example 15]
Locomotor activity
  Screen (mouse) MED: 10 to 30 mg/kg
taming
  Taming (monkey) MED: > 10 mg/kg
[4]
  C.A.R. (mouse) ED50: 10 to 30 mg/kg
[3]
  A.A. (mouse) ED50: 3 to 10 mg/kg

## 3-(2-adamantylmethyl)-1,2,3,4,8,9-hexahydropyrido[4',3':2,3]indolo[1,7-ab][1]benzazepine hydrochloride [Example 11]
Locomotor activity
  Screen (mouse) MED: 100 to 300 mg/kg
[2]
  C.A.R. (rat) ED50: > 40 mg/kg
[4]
  C.A.R. (mouse) ED50: 30 mg/kg
[3]
  A.A. (mouse) ED50: > 100 mg/kg

## CC1(CN2CCc3c(c4cccc5c4n3-c3ccccc3CC5)C2)CC1.Cl [No. 5, 1,2,3,4,8,9-hexahydro-3-[(1-methylcyclopropyl)methyl]pyrido[4',3':2,3]indolo[1,7-ab][1]benzazepine hydrochloride]
[1]
  minimal effective dose: 10 to 20 mg/kg
Locomotor activity
  minimal effective dose: 10 to 30 mg/kg
taming
  minimal effective dose: 10 to 30 mg/kg
[4]
  ED50: 10 to 30 mg/kg
[3]
  ED50: 3 to 10 mg/kg
[5]
  ED50: 10 to 20 mg/kg

## 3-(2-butynyl)-1,2,3,4,8,9-hexahydropyrido[4',3':2,3]indolo[1,7-ab][1]benzazepine hydrochloride [No. 20]
[1]
  Conflict (rat) MED: > 40 mg/kg
Locomotor activity
  Screen (mouse) MED: 10 to 30 mg/kg
taming
  Taming (monkey) MED: 1 to 3 mg/kg
[4]
  C.A.R. (mouse) ED50: 10 to 30 mg/kg
[3]
  A.A. (mouse) ED50: 6 mg/kg
[5]
  C.A.R. (dog) ED50: > 40 mg/kg

## CCCC(C)(COC(N)=O)COC(N)=O [meprobamate, reference compound]
[1]; rats cross to obtain food despite earlier shock, dose-related
  decreased fear in the test animals, in words: apparent decreased fear in the test animals

## 3-(1-cyclopropylethyl)-1,2,3,4,8,9-hexahydropyrido[4',3':2,3]indolo[1,7-ab][1]benzazepine hydrochloride [Example 20]
Locomotor activity
  Screen (mouse) MED: 30 to 100 mg/kg

## 3-[(3-cyclohexen-1-yl)methyl]-1,2,3,4,8,9-hexahydropyrido[4',3':2,3]indolo[1,7-ab][1]benzazepine hydrochloride [No. 9]
Locomotor activity
  Screen (mouse) MED: 3 to 10 mg/kg
[3]
  A.A. (mouse) ED50: 5 mg/kg

## Cl.c1ccc2c(c1)CCc1cccc3c4c(n-2c13)CCN(CC1CCCCC1)C4 [No. 8, 3-(cyclohexylmethyl)-1,2,3,4,8,9-hexahydropyrido[4',3':2,3]indolo[1,7-ab][1]benzazepine hydrochloride]
[1]
  minimal effective dose: > 40 mg/kg
Locomotor activity
  minimal effective dose: 3 to 10 mg/kg
taming
  minimal effective dose: 1 to 3 mg/kg
[2]
  ED50: 30 mg/kg
[4]
  ED50: 20 mg/kg
[3]
  ED50: 2 mg/kg
[5]
  ED50: 10 mg/kg

## 1,2,3,4,8,9-hexahydro-3-[(4-methylbicyclo[2.2.2]oct-2-en-1-yl)methyl]pyrido[4', 3':2,3]indolo[1,7-ab][1]benzazepine hydrochloride [Example 16]
[1]
  Conflict (rat) MED: 10 to 20 mg/kg
Locomotor activity
  Screen (mouse) MED: 100 to 300 mg/kg
taming
  Taming (monkey) MED: 20 mg/kg
[2]
  C.A.R. (rat) ED50: 30 mg/kg
[4]
  C.A.R. (mouse) ED50: 30 to 60 mg/kg
[3]
  A.A. (mouse) ED50: 60 mg/kg
[5]
  C.A.R. (dog) ED50: > 10 mg/kg

## 3-[(2,3-dimethyl-2-cyclopropen-1-yl)methyl]-1,2,3,4,8,9-hexahydropyrido[4',3':2,3]indolo[1,7-ab][1]benzazepine hydrochloride [No. 12]
Locomotor activity
  Screen (mouse) MED: 10 to 30 mg/kg

## Cl.c1ccc2c(c1)CCc1cccc3c4c(n-2c13)CCN(CC1CCCC1)C4 [No. 7, 3-(cyclopentylmethyl)-1,2,3,4,8,9-hexahydropyrido[4',3':2,3]indolo[1,7-ab][1]benzazepine hydrochloride]
[1]
  minimal effective dose: > 40 mg/kg
Locomotor activity
  minimal effective dose: 3 to 10 mg/kg
taming
  minimal effective dose: 1 to 3 mg/kg
[2]
  ED50: 30 mg/kg
[4]
  ED50: 20 mg/kg
[3]
  ED50: 2 mg/kg
[5]
  ED50: 6 mg/kg

## 3-(1-adamantylmethyl)-1,2,3,4,8,9-hexahydropyrido[4',3':2,3]indolo[1,7-ab][1]benzazepine hydrochloride [No. 11]
[1]
  Conflict (rat) MED: > 40 mg/kg
Locomotor activity
  Screen (mouse) MED: 3 to 10 mg/kg
taming
  Taming (monkey) MED: 1 to 3 mg/kg
[2]
  C.A.R. (rat) ED50: 6 mg/kg
[4]
  C.A.R. (mouse) ED50: 1 to 3 mg/kg
[3]
  A.A. (mouse) ED50: 1 mg/kg

## 3-[(cis,cis-2,3-dimethylcyclopropyl)methyl]-1,2,3,4,8,9-hexahydropyrido[4',3':2,3]indolo[1,7-ab][1]benzazepine hydrochloride [No. 14]
Locomotor activity
  Screen (mouse) MED: 10 to 30 mg/kg
taming
  Taming (monkey) MED: > 20 mg/kg
[4]
  C.A.R. (mouse) ED50: 20 mg/kg
[3]
  A.A. (mouse) ED50: 20 mg/kg

## Cl.c1ccc2c(c1)CCc1cccc3c4c(n-2c13)CCN(CC1CCC1)C4 [No. 6, 3-(cyclobutylmethyl)-1,2,3,4,8,9-hexahydropyrido[4',3':2,3]indolo[1,7-ab][1]benzazepine hydrochloride]
[1]
  minimal effective dose: > 40 mg/kg
Locomotor activity
  minimal effective dose: 10 to 30 mg/kg
taming
  minimal effective dose: 1 to 3 mg/kg
[2]
  ED50: 4 mg/kg
[4]
  ED50: 6 mg/kg
[3]
  ED50: 20 mg/kg
[5]
  ED50: 20 mg/kg

## 1,2,3,4,8,9-hexahydro-3-[(trans-2-methylcyclopropyl)methyl]pyrido[4',3':2,3]indolo[1,7-ab][1]benzazepine hydrochloride [No. 4]
[1]
  Conflict (rat) MED: > 40 mg/kg
Locomotor activity
  Screen (mouse) MED: 10 to 30 mg/kg
taming
  Taming (monkey) MED: 3 to 10 mg/kg
[4]
  C.A.R. (mouse) ED50: 20 mg/kg
[3]
  A.A. (mouse) ED50: 6 mg/kg

## C#CCN1CCc2c(c3cccc4c3n2-c2ccccc2CC4)C1.Cl [No. 19, 1,2,3,4,8,9-hexahydro-3-(2-propynyl)pyrido[4',3':2,3]indolo[1,7-ab][1]benzazepine hydrochloride]
Locomotor activity
  minimal effective dose: 10 to 30 mg/kg
[4]
  ED50: 20 mg/kg
[3]
  ED50: 30 to 100 mg/kg

## 1,2,3,4,8,9-hexahydropyrido[4', 3':2,3] indolo[1,7-ab][1]benzazepine [Example 1]
[1]
  Conflict (rat) MED: > 40 mg/kg
Locomotor activity
  Screen (mouse) MED: 10 to 30 mg/kg
taming
  Taming (monkey) MED: 20 to 30 mg/kg
[2]
  C.A.R. (rat) ED50: > 40 mg/kg
[4]
  C.A.R. (mouse) ED50: > 40 mg/kg
[3]
  A.A. (mouse) ED50: 10 mg/kg

## 3-(exo-7-norcarylmethyl)-1,2,3,4,8,9-hexahydropyrido[4',3':2,3]indolo[1,7- ab][1]benzazepine hydrochloride [No. 10]
Locomotor activity
  Screen (mouse) MED: 10 to 30 mg/kg
taming
  Taming (monkey) MED: 10 mg/kg
[4]
  C.A.R. (mouse) ED50: 10 to 30 mg/kg
[3]
  A.A. (mouse) ED50: 3 to 10 mg/kg

## 3-[cis-1,6-dimethyl-endo-3-norcaren-7-yl)methyl]-1,2,3,4,8,9-hexahydropyrido[4',3':2,3]indolo[1,7-ab][1]benzazepine [No. 13]
Locomotor activity
  Screen (mouse) MED: 1 to 3 mg/kg
